Data taken from article PMC5461819 (Peptides, 2015).
“And” between values parts separate entries of the source, which are not always exact repeats. Equal values may be shown once. “Also recorded” adds a separate entry of the source. Read-outs that look alike come from different tables or passages of the source.

Experiments:
[1] = biological target: T1, mouse GRPR (Mus musculus, UniProt P21729); test: [3H]Inositol phosphate generation, mGRPR/BALB cells; type: cell-based
[2] = biological target: T2, mouse BRS-3 (Mus musculus, UniProt O54798); test: [3H]Inositol phosphate generation, mBRS-3/BALB cells; type: cell-based
T2 sequence (O54798 1-399): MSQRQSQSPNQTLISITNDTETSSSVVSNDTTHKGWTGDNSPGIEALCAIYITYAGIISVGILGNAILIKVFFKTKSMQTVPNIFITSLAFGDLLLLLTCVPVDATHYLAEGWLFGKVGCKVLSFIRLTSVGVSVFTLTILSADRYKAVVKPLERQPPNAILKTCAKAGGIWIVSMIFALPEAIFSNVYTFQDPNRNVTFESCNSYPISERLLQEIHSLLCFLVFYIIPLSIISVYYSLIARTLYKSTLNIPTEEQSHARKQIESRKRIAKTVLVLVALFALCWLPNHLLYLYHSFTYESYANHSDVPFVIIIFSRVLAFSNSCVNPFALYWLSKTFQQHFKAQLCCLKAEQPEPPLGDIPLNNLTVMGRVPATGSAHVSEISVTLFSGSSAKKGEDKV

[3] = biological target: T3, human BRS-3 (Homo sapiens, UniProt P32247); test: [3H]Inositol phosphate generation; type: cell-based; conditions: for IC50/ EC50 hBRS-3/BALB: binding IC50 over [3H]IP EC50, hBRS-3/BALB cells, measure of receptor spareness
T3 sequence (P32247 1-399): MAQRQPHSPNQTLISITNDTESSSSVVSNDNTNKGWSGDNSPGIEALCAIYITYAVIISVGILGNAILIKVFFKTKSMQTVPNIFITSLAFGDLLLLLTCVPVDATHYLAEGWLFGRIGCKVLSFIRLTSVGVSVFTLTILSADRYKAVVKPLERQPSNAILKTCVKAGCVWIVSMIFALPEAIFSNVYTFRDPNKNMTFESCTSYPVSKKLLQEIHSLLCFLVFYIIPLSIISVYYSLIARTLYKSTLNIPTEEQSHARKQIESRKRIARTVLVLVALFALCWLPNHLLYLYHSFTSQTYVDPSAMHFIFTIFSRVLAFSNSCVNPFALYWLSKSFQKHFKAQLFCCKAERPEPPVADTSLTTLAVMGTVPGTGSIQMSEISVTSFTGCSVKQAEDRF

[4] = biological target: T4, rat BRS-3 (Rattus norvegicus, UniProt Q8K418); test: [3H]Inositol phosphate generation, rBRS-3/BALB cells; type: cell-based
T4 sequence (Q8K418 1-399): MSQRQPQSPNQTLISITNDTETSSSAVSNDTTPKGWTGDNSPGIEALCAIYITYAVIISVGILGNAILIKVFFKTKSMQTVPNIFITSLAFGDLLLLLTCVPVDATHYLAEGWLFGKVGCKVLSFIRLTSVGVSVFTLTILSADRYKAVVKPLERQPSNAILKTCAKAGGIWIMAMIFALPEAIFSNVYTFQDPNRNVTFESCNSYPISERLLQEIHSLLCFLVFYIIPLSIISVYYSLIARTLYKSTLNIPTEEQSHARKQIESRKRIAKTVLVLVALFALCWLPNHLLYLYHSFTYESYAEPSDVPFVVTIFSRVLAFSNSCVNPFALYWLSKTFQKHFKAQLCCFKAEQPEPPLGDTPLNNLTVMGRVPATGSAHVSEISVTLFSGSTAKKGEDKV

[5] = biological target: T5, human GRPR (Homo sapiens, UniProt P30550); test: [3H]Inositol phosphate generation, hGRPR/BALB cells; type: cell-based
[6] = biological target: T6, human NMBR (Homo sapiens, UniProt P28336); test: [3H]Inositol phosphate generation, hNMBR/BALB cells; type: cell-based
[7] = biological target: T7, rat GRPR (Rattus norvegicus, UniProt P52500); test: [3H]Inositol phosphate generation, rGRPR/AR42J cells; type: cell-based
[8] = biological target: T8, rat NMBR (Rattus norvegicus, UniProt P24053); test: [3H]Inositol phosphate generation, rNMBR/BALB cells; type: cell-based
T8 sequence (P24053 1-390): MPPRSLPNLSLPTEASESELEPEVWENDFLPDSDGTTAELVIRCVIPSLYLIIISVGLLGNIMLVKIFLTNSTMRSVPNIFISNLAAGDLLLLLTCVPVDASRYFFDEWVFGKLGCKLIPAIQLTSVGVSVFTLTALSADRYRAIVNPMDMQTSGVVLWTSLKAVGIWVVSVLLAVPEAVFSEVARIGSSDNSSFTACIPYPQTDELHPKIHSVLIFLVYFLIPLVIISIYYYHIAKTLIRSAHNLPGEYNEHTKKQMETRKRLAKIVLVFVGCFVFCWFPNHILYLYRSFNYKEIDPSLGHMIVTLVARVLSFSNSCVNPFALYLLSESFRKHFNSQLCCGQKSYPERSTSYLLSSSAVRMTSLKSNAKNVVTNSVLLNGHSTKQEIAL

[9] = biological target: T9, mouse NMBR (Mus musculus, UniProt O54799); test: [3H]Inositol phosphate generation, mNMBR/BALB cells; type: cell-based
T9 sequence (O54799 1-390): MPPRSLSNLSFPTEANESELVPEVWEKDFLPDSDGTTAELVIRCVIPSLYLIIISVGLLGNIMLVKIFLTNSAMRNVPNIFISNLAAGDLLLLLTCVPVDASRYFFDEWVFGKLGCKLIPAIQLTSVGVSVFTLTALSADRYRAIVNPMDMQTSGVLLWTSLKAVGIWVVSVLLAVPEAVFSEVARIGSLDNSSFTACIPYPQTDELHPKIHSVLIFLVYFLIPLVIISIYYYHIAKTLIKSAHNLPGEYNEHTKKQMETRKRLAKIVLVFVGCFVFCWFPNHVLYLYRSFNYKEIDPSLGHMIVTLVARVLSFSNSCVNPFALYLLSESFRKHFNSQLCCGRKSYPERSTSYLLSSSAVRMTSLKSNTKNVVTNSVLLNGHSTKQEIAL

[10] = biological target: T3, human BRS-3; test: Binding studies, inhibition of 125I-[D-Tyr6,β-Ala11,Phe13,Nle14]Bn-
[11] = biological target: T8, rat NMBR; test: Binding studies, rNMBR/BALB cells
[12] = biological target: T5, human GRPR; test: Binding studies, hGRPR/BALB cells
[13] = biological target: T1, mouse GRPR; test: Binding studies, mGRPR/BALB cells
[14] = biological target: T9, mouse NMBR; test: Binding studies, mNMBR/BALB cells
[15] = biological target: T7, rat GRPR; test: Binding studies, rGRPR/AR42J cells
[16] = biological target: T6, human NMBR; test: Binding studies, hNMBR/BALB cells

T7 sequence (P52500 whole entry): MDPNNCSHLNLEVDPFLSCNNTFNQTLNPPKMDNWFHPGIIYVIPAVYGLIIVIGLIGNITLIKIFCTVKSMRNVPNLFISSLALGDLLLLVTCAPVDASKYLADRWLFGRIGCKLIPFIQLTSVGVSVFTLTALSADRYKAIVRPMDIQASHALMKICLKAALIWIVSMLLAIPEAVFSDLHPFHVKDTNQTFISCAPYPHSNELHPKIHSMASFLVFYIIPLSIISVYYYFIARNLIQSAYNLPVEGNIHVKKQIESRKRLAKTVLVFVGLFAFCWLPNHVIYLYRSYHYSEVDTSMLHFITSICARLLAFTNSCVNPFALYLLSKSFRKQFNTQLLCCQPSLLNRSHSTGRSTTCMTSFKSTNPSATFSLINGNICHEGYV
T6 sequence (P28336 whole entry): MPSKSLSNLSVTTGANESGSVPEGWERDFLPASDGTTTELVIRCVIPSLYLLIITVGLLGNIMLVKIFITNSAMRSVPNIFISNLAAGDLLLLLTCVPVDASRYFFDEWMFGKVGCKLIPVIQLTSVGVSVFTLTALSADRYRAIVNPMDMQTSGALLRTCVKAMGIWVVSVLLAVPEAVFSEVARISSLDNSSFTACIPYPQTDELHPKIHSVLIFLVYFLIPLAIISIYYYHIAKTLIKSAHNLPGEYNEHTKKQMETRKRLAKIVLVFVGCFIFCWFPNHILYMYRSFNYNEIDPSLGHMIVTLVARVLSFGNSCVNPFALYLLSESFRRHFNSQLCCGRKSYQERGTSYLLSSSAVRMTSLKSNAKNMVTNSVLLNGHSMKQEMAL
T5 sequence (P30550 whole entry): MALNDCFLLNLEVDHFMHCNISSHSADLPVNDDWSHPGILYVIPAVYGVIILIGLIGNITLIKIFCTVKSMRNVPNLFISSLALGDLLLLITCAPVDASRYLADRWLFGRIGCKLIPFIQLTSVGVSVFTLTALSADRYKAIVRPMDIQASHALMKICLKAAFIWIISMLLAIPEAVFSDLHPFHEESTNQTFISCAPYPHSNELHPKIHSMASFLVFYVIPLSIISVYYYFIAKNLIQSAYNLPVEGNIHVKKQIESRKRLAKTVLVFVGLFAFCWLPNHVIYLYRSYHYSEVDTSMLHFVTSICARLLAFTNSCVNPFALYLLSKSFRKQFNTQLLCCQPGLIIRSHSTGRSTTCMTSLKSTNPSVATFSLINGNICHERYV
T1 sequence (P21729 whole entry): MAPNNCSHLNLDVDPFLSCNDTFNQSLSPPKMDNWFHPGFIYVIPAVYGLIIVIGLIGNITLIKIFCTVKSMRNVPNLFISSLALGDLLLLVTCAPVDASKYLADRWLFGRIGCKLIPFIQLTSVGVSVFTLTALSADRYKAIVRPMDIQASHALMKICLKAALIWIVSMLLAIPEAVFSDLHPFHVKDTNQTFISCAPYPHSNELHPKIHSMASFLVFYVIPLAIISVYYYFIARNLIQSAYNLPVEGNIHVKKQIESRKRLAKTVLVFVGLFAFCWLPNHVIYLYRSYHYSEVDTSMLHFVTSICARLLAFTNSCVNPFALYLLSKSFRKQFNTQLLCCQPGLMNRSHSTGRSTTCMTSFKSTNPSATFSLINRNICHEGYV

Which results are given for CC(C)COc1cccc(CC(=O)N2CCNc3nc(C(F)(F)F)ccc3[C@H]2CC(=O)O)c1 [9G, [(5R)-4-([3-(2-methylpropoxy)phenyl]acetyl)-8-(trifluoromethyl)-2,3,4,5-tetrahydro-1H-pyrido[2,3-e][1, 4]diazepin-5-yl]acetic acid]?
EC50 ([1]; read-out: EC50 Mouse GRPR mGRPR/BALB, [3H]IP production, 60 min, 37°C): > 3000 nM; less potent than MK-5046 ([2]; mBRS-3/BALB cells): 3.5–3.8 fold and 4 fold; EC50 ([2]; read-out: EC50 Mouse BRS-3 mBRS-3/BALB, [3H]IP production, 60 min, 37°C): 20.1 ± 0.9 nM; IC50/ EC50 hBRS-3/BALB [3]: 7.6; EC50 ([3]; read-out: EC50 Human BRS-3 hBRS-3/BALB, [3H]IP production, 60 min, 37°C): 9 nM; EC50 ([3]; read-out: EC50 Human BRS-3 hBRS-3/BALB, [3H]IP production, 60 min, 37°C, listed as 9 G): 9.2 ± 0.39 nM; less potent than MK-5046 ([4]; rBRS-3/BALB cells): 165 fold; EC50 ([4]; read-out: EC50 Rat BRS-3 rBRS-3/BALB, [3H]IP production, 60 min, 37°C): 37.9 ± 0.8 nM; EC50 ([5]; read-out: EC50 Human GRPR hGRPR/BALB, [3H]IP production, 60 min, 37°C): > 3000 nM; EC50 ([6]; read-out: EC50 Human NMBR hNMBR/BALB, [3H]IP production, 60 min, 37°C): > 3000 nM; EC50 ([7]; read-out: EC50 Rat GRPR rGRPR/AR42J, [3H]IP production, 60 min, 37°C): > 3000 nM; EC50 ([8]; read-out: EC50 Rat NMBR rNMBR/BALB, [3H]IP production, 60 min, 37°C): > 3000 nM; EC50 ([9]; read-out: EC50 Mouse NMBR mNMBR/BALB, [3H]IP production, 60 min, 37°C): > 3000 nM; affinity greater than MK-5046 ([10]; hBRS-3/BALB cells): 1.5 fold

With O[C@@](Cc1nc(CC2(C(F)(F)F)CC2)c[nH]1)(c1ccc(-n2cccn2)cc1)C(F)(F)F [MK-5046, (2S)-1,1,1-trifluoro-2-[4-(1H-pyrazol-1-yl)phenyl]-3-(4-[[1-(trifluoromethyl)cyclopropyl]methyl]-1H-imidazol-2-yl)propan-2-ol] as the compound, how does the IC50 [11] read?
Its IC50 is over 3000 nM.

What about the EC50 [1] of the same compound?
The EC50 was over 3000 nM.

What about the IC50 [12] of the same compound?
Its IC50 is over 3000 nM.

And the EC50 [2]?
The EC50 was 5.24 ± 0.36 nM.

And the “maximal stimulation of [3H]IP” value ([2]; mBRS-3/BALB cells, 1 μM, n=3)?
Its value is 62,992 ± 9,298 dpm.

What about the “efficacy for activating PLC” value ([2]; mouse BRS-3 cells) of the same compound?
Its value is “full efficacious; also recorded: fully efficacious”.

And the “increase on activating PLC” value ([2]; mouse BRS-3 containing cells)?
The value was 3.9 fold.

What about the EC50 [3] of the same compound?
The EC50 was 8.7 ± 0.47 nM.

What about the “IC50/ EC50 hBRS-3/BALB” value [3] of the same compound?
The value was 11.7 and 11.72.

And the “maximal stimulated [3H]IP value” ([3]; hBRS-3/BALB cells, 1 μM, n=13)?
Its value is 70,268 ± 4,912 dpm.

And the “efficacy for activating PLC” value ([3]; human BRS-3 cells)?
Its value is “full efficacious; also recorded: fully efficacious”.

What about the “increase on activating PLC” value ([3]; human BRS-3 containing cells) of the same compound?
The value was 3.8 fold.

And the EC50 [4]?
The EC50 was 0.23 ± 0.08 nM.

What about the “maximal stimulation of [3H]IP” value ([4]; rBRS-3/BALB cells, 1 μM, n=7) of the same compound?
Its value is 21,812 ± 1,721 dpm.

And the “more potent in rBRS-3 than in hBRS-3” value ([4]; rBRS-3 versus hBRS-3)?
The value was 38 fold.

And the “more potent in rBRS-3 than in mBRS-3” value ([4]; rBRS-3 versus mBRS-3)?
The value was 22 fold.

What about the “efficacy for activating PLC” value ([4]; rat BRS-3 cells) of the same compound?
The value was “full efficacious; also recorded: fully efficacious”.

And the “increase on activating PLC” value ([4]; rat BRS-3 containing cells)?
Its value is 5.8 fold.

And the IC50 [13]?
Its IC50 is over 3000 nM.

And the EC50 [5]?
Its EC50 is over 3000 nM.

And the EC50 [6]?
The EC50 was over 3000 nM.

And the IC50 [14]?
The IC50 was over 3000 nM.

And the EC50 [7]?
Its EC50 is over 3000 nM.

And the EC50 [8]?
Its EC50 is over 3000 nM.

What about the EC50 [9] of the same compound?
The EC50 was over 3000 nM.

What about the IC50 [15] of the same compound?
The IC50 was over 3000 nM.

And the IC50 [16]?
The IC50 was over 3000 nM.

And the IC50 [10]?
The IC50 was 102 ± 2 nM.
